Consider 19 molecules from patent US6307056A, “4-aryloxindoles” (Hoffman-La Roche Inc., priority 1999, dated 2001).

Structures can show the parent of a compound that is named as a salt.

In one experiment the target is rat SAPK (isoform b) (Rattus norvegicus, UniProt P49187). The experiment is described as follows: SAPK FlashPlate Assay (c-Jun phosphorylation). The class given is biochemical. As to conditions: purified rat SAPK activated by MEKK-1/MKK4, GST-c-Jun substrate, 33P-ATP, 30 minutes at 37° C. The procedure: "IC50 " refers to the concentration of a particular 4-aryloxindole or 4-heteroaryloxidole required to inhibit 50% of the SAPK protein kinase catalytic activity. IC50 can be measured, inter alia, using the assay described herein in Example 66.
Human JNK is highly homologous to rat SAPK. To measure the inhibitory activity of test compounds, the compounds were tested in the rat SAPK assay.
For the SAPK assay, purified GST-c-Jun (a chimeric protein containing c-Jun, a natural substrate of JNK) was coated on 96 well FlashPlates (New England Nuclear, Boston, Mass.). Purified rat SAPK (isoform b, Kyriakis et al. supra) was preincubated with preparations containing MEKK-1 and MKK4 for 30 minutes at 37° C. in assay buffer containing 25 mM HEPES, pH 7.5, 150 mM NaCl, 20 mM MgCl2, 2 mM DTT, 0.001% Tween 20, 1 mM ATP freshly added. In the preincubation step, MEKK-1 phosphorylates and activates MKK4, which in turn phosphorylates and activates SAPK. The activated SAPK was then added to the c-Jun coated FlashPlates along with ^33 P-ATP ([…] per reaction) and test compounds. The plates were incubated for 30 minutes at 37° C., then washed with PBS, 0.01% Tween 20, and counted in the Topcount scintillation counter (Packard Instrument Co., Downers Grove, Ill.). Dilutions of compounds were tested in duplicate in each assay. The percent inhibition of c-Jun phosphorylation (a measure of inhibition of SAPK activity) was determined by the following formula: [formula]
where "test compound" refers to the average counts per minute of the test duplicates, "nonspecific" refers to the average counts per minute when no SAPK was added, and "total" refers to the average counts per minute when no compound was added.

Another experiment relates to IL-6. The experiment is described as follows: U937 Cell-Based Assay, IL-6 ELISA after LPS stimulation. As to conditions: Homo sapiens, U-937, PMA-differentiated U937 cells, 1 hour preincubation, 24 hours, supernatant ELISA, read-out: IC50 (pM) in U837 Cells IL6. The procedure: (§1) U937 Cell-Based Assay The U937 cells, a human monocyte/macrophage cell line, was obtained from the ATTC and grown in the recommended medium. These cells when stimulated with lipopolysaccharide (LPS) release TNF, another inflammatory mediator implicated in the JNK pathway ([…] et al., supra) and IL-6. In this assay the ability of a test compound to block TNF expression is evaluated. The U937 cells were suspension cells which when stimulated with phorbol myristate acetate (PMA) (Sigma, St. Louis, Mo.) became adherent. After PMA stimulation the cells were washed in cell culture medium and plated at 1×10^5 cells/well in 96 well plates. The following day the test compounds and dexamethasone control (Sigma, St. Louis, Mo.) were added to the cells for 1 hour of preincubation. Then the cells were stimulated with LPS (Sigma, St. Louis, Mo.). After an additional 24 hours of incubation the supernatants were removed and assayed for TNF-α and IL-6 by ELISA. The IL-6 ELISA was run as described previously for the MG63 assay. […] The intensity of the color (measured at 450 nm) is proportional to the amount of TNF-α or IL-6 produced by the U937 cells upon exposure to LPS and the test compounds. […] IC50 values for each test compound were determined from the linear regression of a plot of the logarithm of the concentration of compound versus amount of TNF-α or IL-6 secreted. […]
For orientation: In an ELISA, binding on a coated surface is turned into a signal by an enzyme label.

The subject of another experiment is TNF-α. The experiment is described as follows: U937 Cell-Based Assay, TNF-α ELISA after LPS stimulation. As to conditions: Homo sapiens, U-937, read-out: IC50 in U837 Cells TNF, PMA-differentiated U937 cells, 1 hour preincubation, 24 hours, supernatant ELISA. Here is the method: as §1

Chain of rat SAPK (isoform b) (P49187 whole entry, canonical isoform): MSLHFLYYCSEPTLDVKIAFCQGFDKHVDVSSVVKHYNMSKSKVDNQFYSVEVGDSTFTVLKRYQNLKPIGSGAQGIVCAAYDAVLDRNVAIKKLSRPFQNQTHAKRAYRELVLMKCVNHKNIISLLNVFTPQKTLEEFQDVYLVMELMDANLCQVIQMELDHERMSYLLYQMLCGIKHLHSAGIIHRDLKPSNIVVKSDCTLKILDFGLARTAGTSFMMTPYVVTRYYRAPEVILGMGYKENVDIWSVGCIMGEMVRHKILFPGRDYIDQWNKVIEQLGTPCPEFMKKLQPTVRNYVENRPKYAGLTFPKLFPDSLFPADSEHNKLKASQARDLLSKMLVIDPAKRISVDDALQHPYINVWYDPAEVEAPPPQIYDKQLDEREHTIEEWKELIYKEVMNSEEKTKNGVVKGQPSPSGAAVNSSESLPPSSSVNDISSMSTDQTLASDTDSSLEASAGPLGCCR

With `Nc1cccc(-c2cccc3c2/C(=C/c2ccc[nH]2)C(=O)N3)c1` [Compound C, (Z)-4-(3-Aminophenyl)-1,3-dihydro-3-[(1H-pyrrol-2-yl)methylene]-2H-indol-2-one], the IC50 (in general, the concentration needed to halve the response being measured) on rat SAPK (isoform b) was less than 0.15 µM.

As for `Nc1cccc(-c2cccc3c2/C(=C/c2ccc[nH]2)C(=O)N3)c1` [D, (Z)-4-(3-Aminophenyl)-1,3-dihydro-3-[(1H-pyrrol-2-yl)methylene]-2H-indol-2-one hydrochloride salt], the half-maximal inhibitory concentration (IC50) with IL-6 is 6.33e+06 pM; in the experiment on TNF-α, 1.17e+06 pM. With `COc1cc[nH]c1/C=C1\C(=O)Nc2cccc(-c3cccc(N)c3)c21` [EE, (Z)-4-(3-Aminophenyl)-1,3-dihydro-3-[(3-methoxy-1H-pyrrol-2-yl)methylene]-2H-indol-2-one], the IC50 against rat SAPK (isoform b) was less than 0.15 µM. Same read-out and setting: in the case of `COc1cc[nH]c1/C=C1\C(=O)Nc2cccc(-c3ccccc3)c21` [GG, (Z)-1,3-Dihydro-4-phenyl-3-[(3-methoxy-1H-pyrrol-2-yl)methylene]-2H-indol-2-one] it was less than 0.15 µM; in that of `COc1cc[nH]c1/C=C1\C(=O)Nc2ccc([N+](=O)[O-])c(-c3ccc(O)cc3)c21` [JJ, (Z)-1,3-Dihydro-4-(4-hydroxyphenyl)-3-[(3-methoxy-1H-pyrrol-2-yl)methylene]-5-nitro-2H-indol-2-one], less than 0.15 µM. `COc1cc[nH]c1/C=C1\C(=O)Nc2ccc([N+](=O)[O-])c(-c3ccccc3)c21` [KK, (Z)-1,3-Dihydro-3-[(3-methoxy-1H-pyrrol-2-yl)methylene]-5-nitro-4-phenyl-2H-indol-2-one]: the IC50 against rat SAPK (isoform b) is less than 0.15 µM. In the case of `COc1cc[nH]c1/C=C1\C(=O)Nc2ccc(NC(=O)Cc3cccs3)c(-c3ccccc3)c21` [LL, (Z)-N-[2,3-Dihydro-3-[(3-methoxy-1H-pyrrol-2-yl)methylene]-2-oxo-4-phenyl-1H-indol-5-yl]-2-thiopheneacetamide], the IC50 against rat SAPK (isoform b) is less than 0.15 µM.

`COc1cc[nH]c1/C=C1\C(=O)Nc2cccc(-c3ccc4[nH]ccc4c3)c21` [MM, (Z)-1,3-Dihydro-4-(5-indolyl)-3-[(3-methoxy-1H-pyrrol-2-yl)methylene]-2H-indol-2-one] displayed an IC50 against rat SAPK (isoform b) of less than 0.15 µM. Same read-out and setting: the figure for `COc1cc[nH]c1/C=C1\C(=O)Nc2ccc(N)c(-c3ccc(O)cc3)c21` [NN, (Z)-5-Amino-1,3-dihydro-4-(4-hydroxyphenyl)-3-[(3-methoxy-1H-pyrrol-2-yl)methylene]-2H-indol-2-one] is less than 0.15 µM. In turn, `COc1cc[nH]c1/C=C1\C(=O)Nc2ccc(NC(=O)Cc3cccs3)c(-c3ccc(O)cc3)c21` [OO, (Z)-N-[2,3-Dihydro-4-(4-hydroxyphenyl)-3-[(3-methoxy-1H-pyrrol-2-yl)methylene]-2-oxo-1H-indol-5-yl]-2-thiopheneacetamide] showed an IC50 on rat SAPK (isoform b) of less than 0.15 µM.

For `COc1cc[nH]c1/C=C1\C(=O)Nc2ccc(N)c(-c3ccccc3)c21` [PP, (Z)-5-Amino-1,3-dihydro-3-[(3-methoxy-1H-pyrrol-2-yl)methylene]-4-phenyl-2H-indol-2-one], the IC50 against rat SAPK (isoform b) is less than 0.15 µM. Regarding `COc1cc[nH]c1/C=C1\C(=O)Nc2ccc(NC(=O)Cc3cccs3)c(-c3ccc4[nH]ccc4c3)c21` [QQ, (Z)-N-[2,3-dihydro-4-(5-indolyl)-3-[(3-methoxy-1H-pyrrol-2-yl)methylene]-2-oxo-1H-indol-5-yl]-2-thiopheneacetamide], at rat SAPK (isoform b), the IC50 was less than 0.15 µM. On the same count and under the same terms, the figure for `COC(=O)c1ccc(-c2c([N+](=O)[O-])ccc3c2/C(=C/c2[nH]ccc2OC)C(=O)N3)cc1` [RR, (Z)-4-[2,3-Dihydro-3-[(3-methoxy-1H-pyrrol-2-yl)methylene]-5-nitro-2oxo-1H-indol-4-yl]-benzoic acid methyl ester] is less than 0.15 µM; for `COC(=O)c1ccc(-c2c(N)ccc3c2/C(=C/c2[nH]ccc2OC)C(=O)N3)cc1` [SS, (Z)-4-[5-Amino-2,3-dihydro-3-[(3-methoxy-1H-pyrrol-2-yl)methylene]-2-oxo-1H-indol-4-yl]-benzoic acid methyl ester] it is less than 0.15 µM; for `COc1cc[nH]c1/C=C1\C(=O)Nc2cccc(-c3cccc4[nH]ccc34)c21` [TT, (Z)-1,3-Dihydro-4-(4-indolyl)-3-[(3-methoxy-1H-pyrrol-2-yl)methylene]-2H-indol-2-one] it is less than 0.15 µM. In the case of `COc1cc[nH]c1/C=C1\C(=O)Nc2cccc(-c3ccc4cc[nH]c4c3)c21` [UU, (Z)-1,3-Dihydro-4-(6-indolyl)-3-[(3-methoxy-1H-pyrrol-2-yl)methylone]-2H-indol-2-one], the IC50 against rat SAPK (isoform b) was less than 0.15 µM. The same measure, in the same setting: in the case of `COc1cc[nH]c1/C=C1\C(=O)Nc2ccc(NC(=O)Cc3cccs3)c(-c3ccc4cc[nH]c4c3)c21` [VV, (Z)-N-[2,3-Dihydro-4-(6-indolyl)-3-[(3-methoxy-1H-pyrrol-2-yl)methylene]-2-oxo-1H-indol-5-yl]-2-thiopheneacetamide] it was less than 0.15 µM.

On to `COC(=O)c1ccc(-c2c(NC(=O)Cc3cccs3)ccc3c2/C(=C/c2[nH]ccc2OC)C(=O)N3)cc1` [WW, (Z)-4-[2,3-Dihydro-3-[(3-methoxy-1H-pyrrol-2-yl)methylene]-2-oxo-5-[(2-thienylacetyl)amino]-1H-indol-4-yl]-benzoic Acid Methyl Ester], for which the IC50 in the experiment on IL-6 is 7.8e+06 pM; in the experiment with TNF-α it was 1.35e+06 pM; at rat SAPK (isoform b), less than 0.15 µM. As to `COc1cc[nH]c1/C=C1\C(=O)Nc2ccc(NC(=O)Cc3cccs3)c(-c3ccc(C(=O)O)cc3)c21` [XX, (Z)-4-[2,3-Dihydro-3-[(3-methoxy-1H-pyrrol-2-yl)methylene]-2-oxo-5-[(2-thienylacetyl)amino]-1H-indol-4-yl]-benzoic acid], on rat SAPK (isoform b), the IC50 was less than 0.15 µM.
